pIC50: −log10 of the molar value. Some results are limits rather than exact numbers.

In this assay the target is T1, P2X7 receptor (IL-1β release from THP-1 cells) (Homo sapiens, UniProt Q99572).
T1 construct: host or cells: THP-1 cells differentiated with LPS and IFN-γ
T1 sequence (Q99572 1-595): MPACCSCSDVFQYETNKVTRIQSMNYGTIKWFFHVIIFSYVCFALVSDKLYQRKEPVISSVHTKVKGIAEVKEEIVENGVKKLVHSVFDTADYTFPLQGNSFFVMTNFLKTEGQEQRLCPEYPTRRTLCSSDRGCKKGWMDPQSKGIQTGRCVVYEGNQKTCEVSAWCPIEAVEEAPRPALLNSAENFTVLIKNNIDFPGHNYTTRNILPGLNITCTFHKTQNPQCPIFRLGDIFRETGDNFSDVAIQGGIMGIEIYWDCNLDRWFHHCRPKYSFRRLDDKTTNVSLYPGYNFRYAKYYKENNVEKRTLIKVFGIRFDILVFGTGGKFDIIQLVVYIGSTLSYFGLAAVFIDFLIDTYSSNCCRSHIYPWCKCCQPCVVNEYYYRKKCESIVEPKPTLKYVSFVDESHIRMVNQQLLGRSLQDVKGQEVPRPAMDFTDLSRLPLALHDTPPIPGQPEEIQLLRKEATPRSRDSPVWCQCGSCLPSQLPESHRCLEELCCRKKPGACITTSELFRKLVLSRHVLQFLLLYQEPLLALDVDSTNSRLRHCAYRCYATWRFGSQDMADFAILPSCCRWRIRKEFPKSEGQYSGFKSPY
In words: IL-1β release assay in differentiated THP-1 cells stimulated with BzATP (Example 9). As to conditions: for inhibition at 0.1 µM: 0.1 μM concentration; for inhibition at 0.1 µM / inhibition at 0.3 µM: BzATP 250 uM, read-out: IL-1β % Inhib. @ 0.3 or 0.1 μM; for inhibition at 0.3 µM: 0.3 μM concentration; for pIC50: released IL-1β as in Example 9, four parameter logistic fit. The format is cell-based. As to the method:
The cells are then pretreated for 30 minutes with the compound of interest at the appropriate concentration in RPMI media containing 100 IU/mL penicillin, 100 ug/mL streptomycin. […] 30 uL of cell supernatant is then collected and IL-1β levels determined via ELISA (R&D systems Cat. #HSLB50) according to manufacturer's recommendations using the Tecan Safire plate reader. Background adjusted IL-1β levels of drug treated and non-treated cells are used to calculate the percent inhibition.
The compounds set forth in Table 1 were tested for activity in a cellular model as described herein. […] Measurements were made and IC50 values, presented in Table 2, below, were determined by fitting the data to a four parameter logistic equation using GraphPad Prism software (GraphPad Software, Inc). The equation may be expressed by the following formula:
Y=Bottom+(Top−Bottom)/(1+10̂((Log EC50−X)*HillSlope))
Where X is the logarithm of concentration, Y is the response and Y starts at Bottom and goes to Top with a sigmoid shape.

For the compound `CC(O)Cn1ccc2c(NC(=O)C3C[C@@H]4CC[C@H]3C4)cccc2c1=O` (some centres unmarked) [Compound 567], the inhibition at 0.1 µM lay in the range of 26 to 50%.
Turning to `CC(C)(O)Cn1ccc2c(NC(=O)[C@H]3CC[C@H](C)CC3)cccc2c1=O` [Compound 568], the inhibition at 0.1 µM was 0 to 25%.
Same read-out and setting: in the case of `CC(C)(O)Cn1ccc2c(NC(=O)CC3C[C@@H]4CC[C@H]3C4)cccc2c1=O` (some centres unmarked) [Compound 569] it was 26 to 50%.
In the case of `CC(C)(O)Cn1ccc2c(NC(=O)[C@@]34C[C@@H]5C[C@@H](C[C@@H]3C5)C4)cccc2c1=O` [Compound 570], the inhibition at 0.1 µM fell in the range of 0 to 25%.
On the same count and under the same terms, the value for `CC(C)(O)Cn1ccc2c(NC(=O)C3C[C@@H]4CC[C@H]3C4)cccc2c1=O` (some centres unmarked) [Compound 571] was 26 to 50%.
On to `CC1(C)CC(C)(C)CC(O)(CC(=O)Nc2cccc3c(=O)n(C(CO)CO)ccc23)C1` [Compound 573], for which the inhibition at 0.3 µM is > 76% and the negative-log IC50 (pIC50) is 7.09.
On the same counts, the results for `C[C@@H](C(N)=O)n1ccc2c(NC(=O)CC34CC5CC(CC(O)(C5)C3)C4)cccc2c1=O` [Compound 574] are 0 to 25% and < 6.00.
Consider `NC(=O)[C@H](CO)n1ccc2c(NC(=O)CC3CCCCCC3)cccc2c1=O` [Compound 575, (S)-2-[5-(2-Cycloheptyl-acetylamino)-1-oxo-1H-isoquinolin-2-yl]-3-hydroxy-propionamide], for which the inhibition at 0.3 µM was > 76% and the negative-log IC50 (pIC50) is 7.39.
With `O=C(CC1CCCCCC1)Nc1cccc2c(=O)n(C[C@H]3CCCN3)ccc12` [Compound 576], the inhibition at 0.3 µM was > 76%.
For the compound `O=C(CC1CCCCCC1)Nc1cccc2c(=O)n(C[C@@H]3CCCN3)ccc12` [Compound 577], the inhibition at 0.3 µM was > 76%.
Consider `O=C(CC1(O)CCCCCC1)Nc1cccc2c(=O)n(C[C@H]3CCCN3)ccc12` [Compound 578, 2-(1-Hydroxy-cycloheptyl)-N-(1-oxo-2-(R)-1-pyrrolidin-2-ylmethyl-1,2-dihydro-isoquinolin-5-yl)-acetamide], for which the inhibition at 0.3 µM is > 76% and the negative logarithm of the IC50 (pIC50) was 6.95.
On the same counts, the results for `C[C@H](C(N)=O)n1ccc2c(NC(=O)CC34CC5CC(CC(O)(C5)C3)C4)cccc2c1=O` [Compound 581] are > 76% and 7.32.
On the same counts, the results for `CC1(C)CC(CC(=O)Nc2cccc3c(=O)n(CCO)ccc23)CC(C)(C)C1` [Compound 584, N-[2-(2-Hydroxy-ethyl)-1-oxo-1,2-dihydro-isoquinolin-5-yl]-2-(3,3,5,5-tetramethylcyclohexyl)-acetamide] are > 76% and 8.74.
On the same counts, the results for `CC(C)C[C@H](CO)n1ccc2c(NC(=O)CC34CC5CC(CC(C5)C3)C4)cccc2c1=O` [Compound 585, 2-Adamantan-1-yl-N-[2-((R)-1-hydroxymethyl-3-methyl-butyl)-1-oxo-1,2-dihydro-isoquinolin-5-yl]-acetamide] are > 76% and 8.86.
Regarding `C[C@H](C(N)=O)n1ccc2c(NC(=O)CC3CC(C)(C)CC(C)(C)C3)cccc2c1=O` [Compound 588], the inhibition at 0.3 µM is > 76% and the pIC50 was 9.03.
Regarding `CC(C)C[C@H](CO)n1ccc2c(NC(=O)CC3CCCCCC3)cccc2c1=O` [Compound 590], the inhibition at 0.3 µM was > 76% and the pIC50 was 8.08.
As for `CC(C)[C@H](CO)n1ccc2c(NC(=O)CC3CCCCCC3)cccc2c1=O` [Compound 591, 2-Cycloheptyl-N-[2-((R)-1-hydroxymethyl-2-methyl-propyl)-1-oxo-1,2-dihydro-isoquinolin-5-yl]-acetamide], the inhibition at 0.3 µM is > 76% and the pIC50 was 8.47.
For `CNC(=O)[C@@H](C(C)C)n1ccc2c(NC(=O)CC34CC5CC(CC(C5)C3)C4)cccc2c1=O` [Compound 592, (R)-2-[5-(2-Adamantan-1-yl-acetylamino)-1-oxo-1H-isoquinolin-2-yl]-3,N-dimethyl-butyramide], the inhibition at 0.3 µM was > 76% and the pIC50 was 8.92.

Source of the values: US20100184802A1, “Bicycloheteroaryl Compounds as P2X7 Modulators and Uses Thereof” (priority 2006, published 2010).
